The source of these data is US20240391875A1, “ISOQUINOLINONES AND QUINOLINONES AS MODULATORS OF POLRMT” (Pretzel Therapeutics, Inc., priority 2021, published 2024).

POLRMT, sequence (O00411 42-1230): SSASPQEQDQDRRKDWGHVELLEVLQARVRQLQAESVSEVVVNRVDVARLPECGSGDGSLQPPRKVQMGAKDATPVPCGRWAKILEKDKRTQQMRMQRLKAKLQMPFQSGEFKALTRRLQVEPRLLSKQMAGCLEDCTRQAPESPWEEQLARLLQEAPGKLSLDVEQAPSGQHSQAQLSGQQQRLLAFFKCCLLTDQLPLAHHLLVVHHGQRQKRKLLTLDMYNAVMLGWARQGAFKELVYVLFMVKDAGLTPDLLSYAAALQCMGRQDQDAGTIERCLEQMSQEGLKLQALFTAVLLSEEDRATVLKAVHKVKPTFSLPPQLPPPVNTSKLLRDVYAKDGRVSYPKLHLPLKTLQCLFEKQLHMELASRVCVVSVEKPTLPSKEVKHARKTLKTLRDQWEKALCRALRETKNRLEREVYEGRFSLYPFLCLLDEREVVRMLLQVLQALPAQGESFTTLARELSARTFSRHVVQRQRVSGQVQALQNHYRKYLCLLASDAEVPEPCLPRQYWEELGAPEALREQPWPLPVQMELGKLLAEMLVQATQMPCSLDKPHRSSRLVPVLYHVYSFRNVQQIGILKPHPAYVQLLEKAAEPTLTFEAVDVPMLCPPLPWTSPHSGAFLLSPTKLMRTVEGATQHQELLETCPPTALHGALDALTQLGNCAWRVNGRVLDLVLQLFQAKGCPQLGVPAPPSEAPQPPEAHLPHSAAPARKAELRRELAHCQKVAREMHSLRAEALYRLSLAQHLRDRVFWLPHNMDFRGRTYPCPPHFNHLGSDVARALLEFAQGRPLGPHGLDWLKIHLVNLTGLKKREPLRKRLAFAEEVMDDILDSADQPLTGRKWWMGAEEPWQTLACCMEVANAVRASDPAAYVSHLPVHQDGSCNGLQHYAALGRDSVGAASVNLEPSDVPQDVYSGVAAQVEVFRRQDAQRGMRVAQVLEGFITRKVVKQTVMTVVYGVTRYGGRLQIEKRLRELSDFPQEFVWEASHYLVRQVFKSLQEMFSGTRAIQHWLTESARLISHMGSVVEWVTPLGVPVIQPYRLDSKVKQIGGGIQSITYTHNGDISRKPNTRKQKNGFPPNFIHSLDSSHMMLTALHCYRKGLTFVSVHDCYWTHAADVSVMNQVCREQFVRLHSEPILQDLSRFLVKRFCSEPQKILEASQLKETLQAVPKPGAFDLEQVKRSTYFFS

For one assay, the target named is POLRMT (Homo sapiens, UniProt O00411). The experiment in a line: homogeneous TR-FRET assay of mitochondrial transcription (inhibition of POLRMT). It counts as biochemical. To be noted: isoquinolinone compounds (Table 1). The procedure, abridged:
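Recombinant POLRMT (7.5 nM) with TFB2M, TFAM and linearized LSP plasmid template, 500 μM NTPs, pH 7.5 Mg buffer; 60 min at 37° C. Reaction stopped with EDTA/high-salt buffer, 407 bp RNA transcript detected by hybridized ATTO647/Europium-cryptate probe pair; TR-FRET 665/620 nm ratio taken as transcript yield.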
On the technique in general: Time-resolved FRET reads energy transfer from a long-lived donor to a nearby acceptor.
As a reminder, the IC50 is the midpoint of a concentration-inhibition curve. `Cc1ccccc1-c1c[nH]c(=O)c2cc(-c3ccccc3)ccc12` [Example 48, 7-phenyl-4-(o-tolyl)isoquinolin-1(2H)-one]: the IC50 came to 0.2 µM. In the case of `Cc1ccccc1-c1c[nH]c(=O)c2cc(OC(C)C(N)=O)ccc12` (single isomer, unassigned) [Example 73], the IC50 was 0.4 µM.

Take `Cc1ccccc1-c1c[nH]c(=O)c2cc(N(C)CC(N)=O)ccc12` [Example 66, 2-(methyl(1-oxo-4-(o-tolyl)-1,2-dihydroisoquinolin-7-yl)amino)acetamide]: the half-maximal inhibitory concentration (IC50) was 5 µM.

The compound `Cc1ccccc1-c1c[nH]c(=O)c2cc(OCC(N)=O)ccc12` [Example 63, 2-((1-oxo-4-(o-tolyl)-1,2-dihydroisoquinolin-7-yl)oxy)acetamide] showed an IC50 of 3 µM. This IC50 lies about 1.7-fold lower than the previous one.

Take `C[C@@H](Oc1ccc2c(-c3ccc(F)cc3Cl)c[nH]c(=O)c2c1)C(=O)N1CCC(C(=O)O)CC1` [Example 64, (R)-1-(2-((4-(2-chloro-4-fluorophenyl)-1-oxo-1,2-dihydroisoquinolin-7-yl)oxy)propanoyl)piperidine-4-carboxylic acid]: the IC50 was 0.05 µM. Still for that read-out and setting: with `C[C@@H](Oc1ccc2c(-c3ccc(F)cc3Cl)c[nH]c(=O)c2c1)C(=O)N1C2CCCC1CC2` [Example 93, 7-(((2R)-1-(8-azabicyclo[3.2.1]octan-8-yl)-1-oxopropan-2-yl)oxy)-4-(2-chloro-4-fluorophenyl)isoquinolin-1(2H)-one] the figure was 0.03 µM. `COCC(C)Oc1ccc2c(-c3ccccc3C)c[nH]c(=O)c2c1` (single isomer, unassigned) [Example 27, 7-((1-methoxypropan-2-yl)oxy)-4-(o-tolyl)isoquinolin-1(2H)-one] gave an IC50 of 1 µM.

`Cc1ccccc1-c1c[nH]c(=O)c2cc(O[C@H](C)C(=O)N3CCC[C@H](C(N)=O)C3)ccc12` [Example 94, (S)-1-((R)-2-((1-oxo-4-(o-tolyl)-1,2-dihydroisoquinolin-7-yl)oxy)propanoyl)piperidine-3-carboxamide] yielded an IC50 of 0.07 µM. The same measure, in the same setting: the value for `COCC(Oc1ccc2c(-c3ccccc3C)c[nH]c(=O)c2c1)C(N)=O` (single isomer, unassigned) [Example 53] was 13 µM; that for `COCC(C#N)Oc1ccc2c(-c3ccccc3C)c[nH]c(=O)c2c1` (single isomer, unassigned) [Example 76, 3-methoxy-2-((1-oxo-4-(o-tolyl)-1,2-dihydroisoquinolin-7-yl)oxy)propanenitrile] was 0.2 µM; that for `Cc1cc(F)cc(C)c1-c1c[nH]c(=O)c2cc(OCC(N)=O)ccc12` [Example 109, 2-((4-(4-fluoro-2,6-dimethylphenyl)-1-oxo-1,2-dihydroisoquinolin-7-yl)oxy)acetamide] was 7 µM. Same read-out and setting: with `COCC(C#N)Oc1ccc2c(-c3ccccc3C)c[nH]c(=O)c2c1` (single isomer, unassigned) [Example 75, 3-methoxy-2-((1-oxo-4-(o-tolyl)-1,2-dihydroisoquinolin-7-yl)oxy)propanenitrile] the figure was 4 µM; with `Cc1ccccc1-c1c[nH]c(=O)c2cc(CC(C)C(=O)N3CCCCC3)ccc12` (stereo not shown) [Example 41, 7-(2-methyl-3-oxo-3-(piperidin-1-yl)propyl)-4-(o-tolyl)isoquinolin-1(2H)-one], 1 µM. Still for that read-out and setting: with `C[C@@H](Oc1ccc2c(-c3ccc(F)cc3Cl)c[nH]c(=O)c2c1)C(=O)N1CCO[C@@H](CO)C1` [Example 104, 4-(2-chloro-4-fluorophenyl)-7-(((R)-1-((R)-2-(hydroxymethyl)morpholino)-1-oxopropan-2-yl)oxy)isoquinolin-1(2H)-one] the figure was 1 µM; with `CC(C#N)Oc1ccc2c(-c3ccccc3Cl)c[nH]c(=O)c2c1` (single isomer, unassigned) [Example 57, 2-((4-(2-chlorophenyl)-1-oxo-1,2-dihydroisoquinolin-7-yl)oxy)propanenitrile], 0.3 µM; with `COC[C@H]1COCCN1C(=O)[C@@H](C)Oc1ccc2c(-c3ccc(F)cc3Cl)c[nH]c(=O)c2c1` [Example 103, 4-(2-chloro-4-fluorophenyl)-7-(((R)-1-((S)-3-(methoxymethyl)morpholino)-1-oxopropan-2-yl)oxy)isoquinolin-1(2H)-one], 0.7 µM. As for `C[C@@H](Oc1ccc2c(-c3ccc(F)cc3Cl)c[nH]c(=O)c2c1)C(=O)N1CCC[C@H](C(N)=O)C1` [Example 82, (S)-1-((R)-2-((4-(2-chloro-4-fluorophenyl)-1-oxo-1,2-dihydroisoquinolin-7-yl)oxy)propanoyl)piperidine-3-carboxamide], it took 0.09 µM to reach half-maximal inhibition (IC50).

Staying with this assay, now noted: quinolinone compounds (Table 2).
Consider `Cc1cc(F)ccc1-c1cc(=O)[nH]c2cc(OC(C)C)ccc12` [Example Q3, 4-(4-fluoro-2-methylphenyl)-7-isopropoxy-1H-quinolin-2-one], for which it took 4 µM to reach half-maximal inhibition (IC50). Still for that read-out and setting: with `C[C@@H](Oc1ccc2c(-c3ccc(F)cc3Cl)cc(=O)[nH]c2c1)C(=O)N1CCCCC1` [Example Q5, (R)-4-(2-chloro-4-fluorophenyl)-7-((1-oxo-1-(piperidin-1-yl)propan-2-yl)oxy)quinolin-2(1H)-one] the figure was 5 µM.
